Converted amounts (≈) assume the structure as drawn.
Key:
Assay in all cases: MIC, broth microdilution (NCCLS)
Format in all cases: cell-based
[1] = tested on: C. albicans GC3066 ATCC (Control); details: Candida albicans, Mueller-Hinton II broth, 18-22 hours at 35° C.
E. coli GC1073 (tet(B)) = details: Escherichia coli
How it was run: (§1)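 Broth microdilution per NCCLS M7-A5 in Mueller-Hinton II broth, inoculum 10^5 CFU/ml. Plates incubated 18-22 h at 35 °C in ambient air; MIC is lowest inhibitory antibiotic concentration.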

[2] = tested on: E. coli GC2203 (ATCC Control); details: Escherichia coli, Mueller-Hinton II broth, 18-22 hours at 35° C.
How it was run: as §1

E. coli GC2270 (tet(M)) = details: Escherichia coli
How it was run: as §1

[3] = tested on: E. coli GC4559 (parent GC4560); details: Escherichia coli, Mueller-Hinton II broth, 18-22 hours at 35° C.
How it was run: as §1

[4] = tested on: E. coli GC4560 (IMP mutant); details: Escherichia coli
How it was run: as §1

[5] = tested on: E. faecalis GC2242 (Van-resistant); details: Enterococcus faecalis, Mueller-Hinton II broth, 18-22 hours at 35° C.
How it was run: as §1

[6] = tested on: E. faecalis GC2267 (tet(L) + (M) + (S)); details: Enterococcus faecalis
How it was run: as §1

[7] = tested on: E. faecalis GC4555 (ATCC Control); details: Enterococcus faecalis, Mueller-Hinton II broth, 18-22 hours at 35° C.
How it was run: as §1

[8] = tested on: H. influenzae<> GC6896 (ATCC Control); details: Haemophilus influenzae, Mueller-Hinton II broth, 18-22 hours at 35° C.
How it was run: as §1

[9] = tested on: M. catarrhalis* GC6907 (Clinical); details: Moraxella catarrhalis, Mueller-Hinton II broth, 18-22 hours at 35° C.
How it was run: as §1

[10] = tested on: S. aureus GC1079 (tet(K)); details: Staphylococcus aureus, Mueller-Hinton II broth, 18-22 hours at 35° C.
How it was run: as §1

[11] = tested on: S. aureus GC1131 (Clinical); details: Staphylococcus aureus, Mueller-Hinton II broth, 18-22 hours at 35° C.
How it was run: as §1

[12] = tested on: S. aureus GC2216 (ATCC Control); details: Staphylococcus aureus, Mueller-Hinton II broth, 18-22 hours at 35° C.
How it was run: as §1

[13] = tested on: S. aureus GC4536 (Smith MP -In Vivo); details: Staphylococcus aureus, Mueller-Hinton II broth, 18-22 hours at 35° C.
How it was run: as §1

[14] = tested on: S. aureus GC6466 (tet(M)); details: Staphylococcus aureus, Mueller-Hinton II broth, 18-22 hours at 35° C.
How it was run: as §1

[15] = tested on: S. pneumoniae* GC1894 (Clinical); details: Streptococcus pneumoniae, Mueller-Hinton II broth, 18-22 hours at 35° C.
How it was run: as §1

[16] = tested on: S. pneumoniae* GC4465 (Clinical); details: Streptococcus pneumoniae, Mueller-Hinton II broth, 18-22 hours at 35° C.
How it was run: as §1

[17] = tested on: S. pyogenes* GC4563 (Clinical); details: Streptococcus pyogenes, Mueller-Hinton II broth, 18-22 hours at 35° C.
How it was run: as §1

| Compound | MIC [1] | MIC (E. coli GC1073 (tet(B))) | MIC [2] | MIC (E. coli GC2270 (tet(M))) | MIC [3] | MIC [4] | MIC [5] | MIC [6] | MIC [7] | MIC [8] | MIC [9] | MIC [10] | MIC [11] | MIC [12] | MIC [13] | MIC [14] | MIC [15] | MIC [16] | MIC [17] |
| --- | --- | --- | --- | --- | --- | --- | --- | --- | --- | --- | --- | --- | --- | --- | --- | --- | --- | --- | --- |
| CN(C)c1ccc(-c2nc3cc(N(C)C)c4c(c3o2)C(=O)C2=C(O)[C@]3(O)C(=O)C(C(N)=O)=C(O)[C@@H](N(C)C)[C@@H]3C[C@@H]2C4)cc1 [Example 8, (6aR,7aS,8S,11aS)-5,8-bis(dimethylamino)-2-[4-(dimethylamino)phenyl]-9,11a,12-trihydroxy-11,13-dioxo-6,6a,7,7a,8,11,11a,13-octahydrotetraceno[2,1-d][1,3]oxazole-10-carboxamide] | > 64 µg/mL | > 64 µg/mL | > 64 µg/mL | > 64 µg/mL | > 64 µg/mL | 16 µg/mL (≈ 26.6 µM) | 8 µg/mL (≈ 13.3 µM) | 16 µg/mL (≈ 26.6 µM) | 32 µg/mL (≈ 53.2 µM) | > 64 µg/mL | 64 µg/mL (≈ 106 µM) | 16 µg/mL (≈ 26.6 µM) | 8 µg/mL (≈ 13.3 µM) | 8 µg/mL (≈ 13.3 µM) | 16 µg/mL (≈ 26.6 µM) | 16 µg/mL (≈ 26.6 µM) | 16 µg/mL (≈ 26.6 µM) | 32 µg/mL (≈ 53.2 µM) | 16 µg/mL (≈ 26.6 µM) |
| CN(C)c1cc2nc(-c3ccc(OCc4ccccc4)cc3)oc2c2c1C[C@H]1C[C@H]3[C@H](N(C)C)C(O)=C(C(N)=O)C(=O)[C@@]3(O)C(O)=C1C2=O [Example 11, (6aR,7aS,8S,11aS)-2-[4-(benzyloxy)phenyl]-5,8-bis(dimethylamino)-9,11a,12-trihydroxy-11,13-dioxo-6,6a,7,7a,8,11,11a,13-octahydrotetraceno[2,1-d](1,3]oxazole-10-carboxamide] | > 64 µg/mL | > 64 µg/mL | > 64 µg/mL | > 64 µg/mL | > 64 µg/mL | > 64 µg/mL | 64 µg/mL (≈ 96.3 µM) | > 64 µg/mL | 64 µg/mL (≈ 96.3 µM) | > 64 µg/mL | 32 µg/mL (≈ 48.1 µM) | 64 µg/mL (≈ 96.3 µM) | 32 µg/mL (≈ 48.1 µM) | 64 µg/mL (≈ 96.3 µM) | 64 µg/mL (≈ 96.3 µM) | 64 µg/mL (≈ 96.3 µM) | 32 µg/mL (≈ 48.1 µM) | 32 µg/mL (≈ 48.1 µM) | 32 µg/mL (≈ 48.1 µM) |
| CN(C)c1cc2nc(/C=C/c3ccc(F)cc3)oc2c2c1C[C@H]1C[C@H]3[C@H](N(C)C)C(O)=C(C(N)=O)C(=O)[C@@]3(O)C(O)=C1C2=O [Example 29, (6aR,7aS,8S,11aS)-5,8-bis(dimethylamino)-2-[(E)-2-(4-fluorophenyl)ethenyl]-9,11a,12-trihydroxy-11,13-dioxo-6,6a,7,7a,8,11,11a,13-octahydrotetraceno[2,1-d][1,3]oxazole-10-carboxamide] | > 64 µg/mL | > 64 µg/mL | > 64 µg/mL | > 64 µg/mL | > 64 µg/mL | 8 µg/mL (≈ 13.3 µM) | 8 µg/mL (≈ 13.3 µM) | – | 8 µg/mL (≈ 13.3 µM) | > 64 µg/mL | 16 µg/mL (≈ 26.6 µM) | 8 µg/mL (≈ 13.3 µM) | 8 µg/mL (≈ 13.3 µM) | 8 µg/mL (≈ 13.3 µM) | 8 µg/mL (≈ 13.3 µM) | 8 µg/mL (≈ 13.3 µM) | 32 µg/mL (≈ 53.1 µM) | 32 µg/mL (≈ 53.1 µM) | 16 µg/mL (≈ 26.6 µM) |
| CN(C)c1cc2nc(/C=C/c3ccccc3F)oc2c2c1C[C@H]1C[C@H]3[C@H](N(C)C)C(O)=C(C(N)=O)C(=O)[C@@]3(O)C(O)=C1C2=O [Example 30, (6aR,7aS,8S,11aS)-5,8-bis(dimethylamino)-2-[(E)-2-(2-fluorophenyl)ethenyl]-9,11a,12-trihydroxy-11,13-dioxo-6,6a,7,7a,8,11,11a,13-octahydrotetraceno[2,1-d][1,3]oxazole-10-carboxamide] | > 64 µg/mL | > 64 µg/mL | > 64 µg/mL | > 64 µg/mL | > 64 µg/mL | 8 µg/mL (≈ 13.3 µM) | 4 µg/mL (≈ 6.64 µM) | – | 8 µg/mL (≈ 13.3 µM) | > 64 µg/mL | 32 µg/mL (≈ 53.1 µM) | 8 µg/mL (≈ 13.3 µM) | 4 µg/mL (≈ 6.64 µM) | 4 µg/mL (≈ 6.64 µM) | 8 µg/mL (≈ 13.3 µM) | 8 µg/mL (≈ 13.3 µM) | 16 µg/mL (≈ 26.6 µM) | 16 µg/mL (≈ 26.6 µM) | 16 µg/mL (≈ 26.6 µM) |
| CN(C)c1cc2nc(-c3ccc(C(C)(C)C)cc3)oc2c2c1C[C@H]1C[C@H]3[C@H](N(C)C)C(O)=C(C(N)=O)C(=O)[C@@]3(O)C(O)=C1C2=O [Example 31, (6aR,7aS,8S,11aS)-2-(4-tert-butylphenyl)-5,8-bis(dimethylamino)-9,11a,12-trihydroxy-11,13-dioxo-6,6a,7,7a,8,11,11a,13-octahydrotetraceno[2,1-d][1,3]oxazole-10-carboxamide] | > 64 µg/mL | > 64 µg/mL | > 64 µg/mL | > 64 µg/mL | > 64 µg/mL | 4 µg/mL (≈ 6.51 µM) | 8 µg/mL (≈ 13 µM) | – | 8 µg/mL (≈ 13 µM) | > 64 µg/mL | 16 µg/mL (≈ 26 µM) | 8 µg/mL (≈ 13 µM) | 8 µg/mL (≈ 13 µM) | 8 µg/mL (≈ 13 µM) | 8 µg/mL (≈ 13 µM) | 4 µg/mL (≈ 6.51 µM) | 8 µg/mL (≈ 13 µM) | 8 µg/mL (≈ 13 µM) | 8 µg/mL (≈ 13 µM) |
| CN(C)c1cc2nc(-c3ccncc3)oc2c2c1C[C@H]1C[C@H]3[C@H](N(C)C)C(O)=C(C(N)=O)C(=O)[C@@]3(O)C(O)=C1C2=O [Example 33, (6aR,7aS,8S,11aS)-5,8-bis(dimethylamino)-9,11a,12-trihydroxy-11,13-dioxo-2-pyridin-4-yl-6,6a,7,7a,8,11,11a,13-octahydrotetraceno[2,1-d][1,3]oxazole-10-carboxamide] | > 64 µg/mL | > 64 µg/mL | 64 µg/mL (≈ 114 µM) | > 64 µg/mL | > 64 µg/mL | 16 µg/mL (≈ 28.6 µM) | 16 µg/mL (≈ 28.6 µM) | – | 16 µg/mL (≈ 28.6 µM) | 32 µg/mL (≈ 57.2 µM) | 8 µg/mL (≈ 14.3 µM) | 16 µg/mL (≈ 28.6 µM) | 16 µg/mL (≈ 28.6 µM) | 16 µg/mL (≈ 28.6 µM) | 16 µg/mL (≈ 28.6 µM) | 32 µg/mL (≈ 57.2 µM) | 32 µg/mL (≈ 57.2 µM) | 16 µg/mL (≈ 28.6 µM) | 8 µg/mL (≈ 14.3 µM) |
| CN(C)c1cc2nc(-c3cccnc3)oc2c2c1C[C@H]1C[C@H]3[C@H](N(C)C)C(O)=C(C(N)=O)C(=O)[C@@]3(O)C(O)=C1C2=O [Example 34, (6aR,7aS,8S,11aS)-5,8-bis(dimethylamino)-9,11a,12-trihydroxy-11,13-dioxo-2-pyridin-3-yl-6,6a,7,7a,8,11,11a,13-octahydrotetraceno[2,1-d][1,3]oxazole-10-carboxamide] | > 64 µg/mL | > 64 µg/mL | > 64 µg/mL | > 64 µg/mL | > 64 µg/mL | 32 µg/mL (≈ 57.2 µM) | 32 µg/mL (≈ 57.2 µM) | – | 32 µg/mL (≈ 57.2 µM) | > 64 µg/mL | 16 µg/mL (≈ 28.6 µM) | 32 µg/mL (≈ 57.2 µM) | 32 µg/mL (≈ 57.2 µM) | 32 µg/mL (≈ 57.2 µM) | 64 µg/mL (≈ 114 µM) | 64 µg/mL (≈ 114 µM) | 64 µg/mL (≈ 114 µM) | 32 µg/mL (≈ 57.2 µM) | 32 µg/mL (≈ 57.2 µM) |

Reference: patent US20080064667A1, “OXAZOLE DERIVATIVES OF TETRACYCLINES” (Wyeth, priority 2003, published 2008)
